The text below walks through data of ChEMBL document CHEMBL1158447, “Substituted benzimidazoles: A novel chemotype for small molecule hKSP inhibitors” (Bioorg Med Chem Lett, 2009).

Series [1] deals with T1, Kinesin-like protein KIF11 (Homo sapiens, UniProt P52732).
T1 sequence (P52732 whole entry): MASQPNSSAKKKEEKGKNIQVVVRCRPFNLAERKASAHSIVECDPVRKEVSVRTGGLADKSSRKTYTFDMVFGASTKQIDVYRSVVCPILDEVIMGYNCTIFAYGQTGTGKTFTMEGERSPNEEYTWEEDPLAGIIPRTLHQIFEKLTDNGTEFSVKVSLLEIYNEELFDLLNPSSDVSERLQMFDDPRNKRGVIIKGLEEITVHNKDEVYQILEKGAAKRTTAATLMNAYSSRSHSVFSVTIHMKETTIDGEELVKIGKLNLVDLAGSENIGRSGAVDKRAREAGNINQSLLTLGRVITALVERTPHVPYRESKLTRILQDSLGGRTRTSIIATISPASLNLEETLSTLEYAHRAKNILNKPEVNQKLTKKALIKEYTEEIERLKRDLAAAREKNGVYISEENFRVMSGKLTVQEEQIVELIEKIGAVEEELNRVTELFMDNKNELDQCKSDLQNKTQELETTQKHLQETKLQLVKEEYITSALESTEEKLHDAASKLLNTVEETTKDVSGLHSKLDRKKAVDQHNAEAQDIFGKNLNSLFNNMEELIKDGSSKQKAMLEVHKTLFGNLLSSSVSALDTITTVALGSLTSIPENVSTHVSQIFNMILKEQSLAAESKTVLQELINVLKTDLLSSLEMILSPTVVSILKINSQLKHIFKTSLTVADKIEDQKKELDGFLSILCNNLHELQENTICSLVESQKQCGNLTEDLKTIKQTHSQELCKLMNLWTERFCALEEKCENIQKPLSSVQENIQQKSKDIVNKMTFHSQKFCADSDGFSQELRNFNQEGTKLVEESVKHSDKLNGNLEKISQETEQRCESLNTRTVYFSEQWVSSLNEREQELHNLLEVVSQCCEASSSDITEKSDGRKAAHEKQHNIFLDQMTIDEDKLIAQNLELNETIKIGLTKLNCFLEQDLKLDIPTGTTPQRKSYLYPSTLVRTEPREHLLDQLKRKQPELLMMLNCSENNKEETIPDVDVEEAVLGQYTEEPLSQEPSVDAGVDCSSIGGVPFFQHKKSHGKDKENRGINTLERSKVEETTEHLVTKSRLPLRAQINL
The series can be described thus: Inhibition of human kinesin spindle protein by endpoint assay.

The target of series [2] is T2, Kinesin heavy chain isoform 5A (Homo sapiens, UniProt Q12840).
T2 sequence (Q12840 whole entry): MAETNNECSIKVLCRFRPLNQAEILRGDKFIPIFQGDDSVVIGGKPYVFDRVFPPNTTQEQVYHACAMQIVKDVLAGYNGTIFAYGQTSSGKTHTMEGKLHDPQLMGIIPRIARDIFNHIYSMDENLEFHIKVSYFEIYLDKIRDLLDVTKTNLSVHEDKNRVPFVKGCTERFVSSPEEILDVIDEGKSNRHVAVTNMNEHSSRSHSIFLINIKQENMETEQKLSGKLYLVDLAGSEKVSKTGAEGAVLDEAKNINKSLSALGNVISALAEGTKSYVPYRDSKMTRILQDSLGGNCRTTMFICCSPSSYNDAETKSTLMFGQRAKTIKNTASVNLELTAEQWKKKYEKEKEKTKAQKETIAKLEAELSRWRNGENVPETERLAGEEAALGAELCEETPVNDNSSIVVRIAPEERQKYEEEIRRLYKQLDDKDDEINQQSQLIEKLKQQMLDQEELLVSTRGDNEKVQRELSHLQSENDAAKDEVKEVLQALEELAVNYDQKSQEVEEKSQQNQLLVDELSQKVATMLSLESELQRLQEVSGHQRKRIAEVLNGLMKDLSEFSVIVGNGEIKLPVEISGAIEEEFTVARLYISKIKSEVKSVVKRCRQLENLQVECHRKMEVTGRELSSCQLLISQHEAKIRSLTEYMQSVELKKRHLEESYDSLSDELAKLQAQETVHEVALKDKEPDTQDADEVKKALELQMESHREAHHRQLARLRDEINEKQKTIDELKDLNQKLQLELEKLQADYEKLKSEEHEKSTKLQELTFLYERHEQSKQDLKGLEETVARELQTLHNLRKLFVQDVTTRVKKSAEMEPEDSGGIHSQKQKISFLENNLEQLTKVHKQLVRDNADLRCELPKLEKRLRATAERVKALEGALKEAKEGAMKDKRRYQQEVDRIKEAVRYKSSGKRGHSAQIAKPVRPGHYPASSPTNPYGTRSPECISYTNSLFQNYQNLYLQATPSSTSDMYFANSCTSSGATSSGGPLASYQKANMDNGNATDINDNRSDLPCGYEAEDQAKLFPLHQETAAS
The series can be described thus: Inhibition of nKHC.

For series [3], the target named is Kinesin-like protein KIF11 (Homo sapiens) (UniProt P52732). The series can be described thus: Selectivity for human KSP over HSET.
Series [4] has as its target T3, Kinesin-like protein KIF3B (Homo sapiens, UniProt O15066).
T3 sequence (O15066 whole entry): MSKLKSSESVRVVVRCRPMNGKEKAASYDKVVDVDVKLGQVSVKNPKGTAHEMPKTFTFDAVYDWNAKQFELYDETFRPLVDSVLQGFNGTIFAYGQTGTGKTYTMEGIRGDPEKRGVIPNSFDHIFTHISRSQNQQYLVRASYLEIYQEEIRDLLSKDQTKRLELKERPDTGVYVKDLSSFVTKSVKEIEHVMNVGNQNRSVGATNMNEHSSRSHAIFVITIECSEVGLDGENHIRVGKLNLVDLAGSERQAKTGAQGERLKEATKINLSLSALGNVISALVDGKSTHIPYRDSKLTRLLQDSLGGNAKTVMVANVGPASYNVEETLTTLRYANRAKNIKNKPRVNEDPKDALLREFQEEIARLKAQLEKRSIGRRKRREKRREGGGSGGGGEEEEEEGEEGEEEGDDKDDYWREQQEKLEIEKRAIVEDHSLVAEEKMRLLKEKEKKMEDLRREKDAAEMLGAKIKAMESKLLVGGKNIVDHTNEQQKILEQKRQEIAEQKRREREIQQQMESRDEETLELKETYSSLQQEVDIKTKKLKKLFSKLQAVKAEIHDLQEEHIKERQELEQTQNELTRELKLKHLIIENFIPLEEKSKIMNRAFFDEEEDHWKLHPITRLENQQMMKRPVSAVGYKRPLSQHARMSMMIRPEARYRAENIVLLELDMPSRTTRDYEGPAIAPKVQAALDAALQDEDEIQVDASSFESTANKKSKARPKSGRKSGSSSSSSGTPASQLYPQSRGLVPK
Kind of series: Inhibition of Kif3B.

Series [5] has as its target T4, Cytochrome P450 3A4 (Homo sapiens, UniProt P08684). The series can be described thus: Inhibition of CYP3A4 preincubated with compound. It counts as ADME.
Series [6] has as its target T5, Cytochrome P450 2C9 (Homo sapiens, UniProt P11712). The series can be described thus: Inhibition of CYP2C9 preincubated with compound. It counts as ADME.
Series [7] has as its target T4, Cytochrome P450 3A4. Kind of series: Inhibition of CYP3A4 coincubated with compound. It is filed as ADME.
Series [8] is described as follows: Permeability across human Caco-2 cell membrane. It is filed as ADME, cell-based. The following applies: read-out: permeability.
In series [9] the target is T5, Cytochrome P450 2C9. Kind of series: Inhibition of CYP2C9 coincubated with compound. It counts as ADME.
For series [10], the target named is T6, Cytochrome P450 2D6 (Homo sapiens, UniProt P10635). The series can be described thus: Inhibition of CYP2D6 coincubated with compound. It is filed as ADME.
T6 sequence (P10635 whole entry): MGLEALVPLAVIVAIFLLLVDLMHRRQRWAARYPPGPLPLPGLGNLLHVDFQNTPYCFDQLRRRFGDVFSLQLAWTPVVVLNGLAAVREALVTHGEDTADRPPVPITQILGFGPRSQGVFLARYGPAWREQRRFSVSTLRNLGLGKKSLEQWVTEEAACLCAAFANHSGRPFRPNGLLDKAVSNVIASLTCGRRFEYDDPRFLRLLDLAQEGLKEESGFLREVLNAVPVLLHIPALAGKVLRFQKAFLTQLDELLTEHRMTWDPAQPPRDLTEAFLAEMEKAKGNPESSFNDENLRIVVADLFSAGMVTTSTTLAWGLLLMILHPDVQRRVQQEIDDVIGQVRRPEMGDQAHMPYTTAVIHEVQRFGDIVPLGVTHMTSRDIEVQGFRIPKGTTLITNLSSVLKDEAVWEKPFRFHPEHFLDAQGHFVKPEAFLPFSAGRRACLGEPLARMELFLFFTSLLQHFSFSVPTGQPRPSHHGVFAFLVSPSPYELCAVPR
Series [11] deals with T6, Cytochrome P450 2D6. The series can be described thus: Inhibition of CYP2D6 preincubated with compound. It counts as ADME.
The test system of series [12] is Rattus norvegicus. Kind of series: AUC in rat at 10 mg/kg after 6 hrs. It is filed as ADME, organism-based, Plasma. Set-up: time < 6 hr, dose 10 mg/kg. The following applies: in vivo.
Series [13] relates to A2780. Kind of series: Antiproliferative activity against human A2780 cells assessed s occurrence of monostral phenotype at 25 uM after 48 hrs by Almar blue assay. It counts as functional, cell-based.
Series [14] concerns A2780. Kind of series: Antiproliferative activity against human A2780 cells after 48 hrs by Almar blue assay. It counts as functional, cell-based. The following applies: A2780, 48 h.

Calls of active or inactive are those of the source. The calls are words filed in the database; no cut-off is given here.

T5 sequence (P11712 whole entry): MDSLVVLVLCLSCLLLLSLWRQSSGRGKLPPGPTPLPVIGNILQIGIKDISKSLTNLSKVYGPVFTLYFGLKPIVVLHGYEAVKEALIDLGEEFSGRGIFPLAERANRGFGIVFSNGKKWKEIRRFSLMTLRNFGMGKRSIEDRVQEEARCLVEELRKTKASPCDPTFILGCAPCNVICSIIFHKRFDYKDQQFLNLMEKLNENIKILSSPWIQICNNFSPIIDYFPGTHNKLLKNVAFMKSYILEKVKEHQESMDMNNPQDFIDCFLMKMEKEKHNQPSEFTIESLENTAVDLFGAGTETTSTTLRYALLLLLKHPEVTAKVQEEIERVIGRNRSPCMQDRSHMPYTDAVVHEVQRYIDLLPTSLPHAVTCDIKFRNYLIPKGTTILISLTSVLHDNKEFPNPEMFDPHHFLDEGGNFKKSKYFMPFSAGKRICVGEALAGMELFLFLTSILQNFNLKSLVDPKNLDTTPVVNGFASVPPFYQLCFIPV
T4 sequence (P08684 whole entry): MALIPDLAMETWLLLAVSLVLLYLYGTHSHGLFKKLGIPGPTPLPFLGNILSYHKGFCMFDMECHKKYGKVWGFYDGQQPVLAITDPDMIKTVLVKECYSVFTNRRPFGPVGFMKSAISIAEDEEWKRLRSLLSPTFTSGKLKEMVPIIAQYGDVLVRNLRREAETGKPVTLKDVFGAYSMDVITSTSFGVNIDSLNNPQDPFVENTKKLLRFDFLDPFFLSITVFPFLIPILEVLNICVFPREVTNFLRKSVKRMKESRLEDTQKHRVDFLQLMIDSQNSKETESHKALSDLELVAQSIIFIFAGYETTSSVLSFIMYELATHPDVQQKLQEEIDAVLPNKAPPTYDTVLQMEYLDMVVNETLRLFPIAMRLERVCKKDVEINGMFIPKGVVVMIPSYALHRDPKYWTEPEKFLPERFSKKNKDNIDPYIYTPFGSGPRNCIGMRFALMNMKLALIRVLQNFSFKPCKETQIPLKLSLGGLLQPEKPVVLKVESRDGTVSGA

As a reminder, the IC50 is the concentration needed to halve the response being measured. For `CS(=O)(=O)c1ccc(Nc2nc3cc(C(=O)O)ccc3n2Cc2ccccc2C(F)(F)F)cc1`, the IC50 in [1] was 6.9 µM; in series [2], over 50 µM; in [4] it was over 50 µM. The compound further displayed a fold change (FC) in [3] of 7.

Broadly, the AUC is concentration integrated over time. A high value points to more exposure. Regarding `CS(=O)(=O)c1ccc(Nc2nc3cc(C(N)=O)ccc3n2Cc2ccccc2C(F)(F)F)cc1`, the IC50 in series [5] is over 20 µM; in series [6], over 8 µM; in series [1] it was 4.8 µM; in [2], over 50 µM; in series [7], over 30 µM; in [9], 15 µM. Further, the values for the half-maximal inhibitory concentration (IC50) in [10], in [11] and in [4] were over 30 µM, over 15 µM and over 50 µM, respectively. Moreover, the Papp in [8] is 1.8 ×10⁻⁶ cm/s. In series [12], this compound returned an exposure (AUC) of 0 µM·h.

In the case of `COc1ccc(Nc2nc3cc(C(N)=O)ccc3n2Cc2ccccc2C(F)(F)F)cc1`, the half-maximal inhibitory concentration (IC50) in [5] is over 15 µM; in [6], over 4 µM; in series [1], 2.5 µM; in series [2], over 50 µM; in series [7] it was over 30 µM; in series [9], 8 µM. Besides, the half-inhibitory concentration (IC50) in [10] was over 30 µM; in series [11] it was over 15 µM; in series [14], 19 µM; in series [4], over 50 µM. Moreover, the Papp in series [8] was 67 ×10⁻⁶ cm/s. For the same compound, the outcome in series [13] was Active. The same compound had an exposure (AUC) in series [12] of 0.6 µM·h.

As to `CSc1ccc(Nc2nc3cc(C(N)=O)ccc3n2Cc2ccccc2C(F)(F)F)cc1`, the IC50 in series [5] was under 15 µM; in series [6] it was over 7 µM; in series [1] it was 0.52 µM; in series [2], over 50 µM; in series [7], over 30 µM; in [9], 14 µM. In addition, the IC50 in series [10] is over 30 µM; in series [11], over 15 µM; in series [14] it was 16 µM; in series [4], over 50 µM. The Papp in [8] was found to be 53 ×10⁻⁶ cm/s. The result in [13] was Active. Besides, the fold change (FC) in [3] worked out at 8. Also, the area under the curve (AUC) in series [12] was 0.15 µM·h.

As for `NC(=O)c1ccc2c(c1)nc(Nc1ccc(S(N)(=O)=O)cc1)n2Cc1ccccc1C(F)(F)F`, the 50% inhibitory concentration (IC50) in series [1] is 7.4 µM; in [2] it was over 50 µM; in series [4], over 50 µM. For the same compound, the fold change (FC) in series [3] was found to be 5.

As to `COc1ccc(Nc2nc3cc(C(N)=O)ccc3n2Cc2ccccc2C(F)(F)F)cc1F`, the values for the IC50 in series [1], in [2] and in [4] were 1.3 µM, over 50 µM and over 50 µM, respectively. The fold change (FC) in series [3] came to 11.

With `NC(=O)c1ccc2c(c1)nc(Nc1ccc(S(N)(=O)=O)cc1)n2Cc1csc2ccccc12`, the IC50 in series [1] was 2.1 µM; in series [2], over 50 µM; in [4], over 50 µM. This compound also showed a fold change (FC) in series [3] of over 24.
